Assay results reported in ChEMBL document CHEMBL1667805, “Synthesis of new C5-(1-substituted-1,2,3-triazol-4 or 5-yl)-2'-deoxyuridines and their antiviral evaluation” (Eur J Med Chem, 2011).
Calls of active or inactive are those of the source. No cut-off for these calls is given here.

Key:
Vaccinia virus = experiment: microbe, parasite or virus in culture; details: Orthopoxvirus vaccinia, HEL
Human alphaherpesvirus 3 [1] = experiment: microbe, parasite or virus in culture; details: Human alphaherpesvirus 3, 07-1, HEL
in vitro = details: human, HEL cells
Human alphaherpesvirus 1 [2] = experiment: microbe, parasite or virus in culture; details: Human alphaherpesvirus 1, KOS, HEL
HeLa = experiment: cells; details: Homo sapiens, 96 h
[3] = tested on: Human immunodeficiency virus 2; experiment: Antiviral activity against HIV2 ROD infected in human […] cells assessed as virus-induced CEM giant cell formation after 4 days; assay type: functional, organism-based; details: ISOLATE ROD
L1210 = experiment: cells; details: Mus musculus, L1210, 48 h
Influenza B virus = assay type: functional, organism-based; details: MDCK
CCRF-CEM = experiment: cells; details: Homo sapiens, 72 h
Human betaherpesvirus 5 [4] = experiment: microbe, parasite or virus in culture; details: Human betaherpesvirus 5, AD169, HEL
Human alphaherpesvirus 1 [5] = experiment: microbe, parasite or virus in culture; details: Human alphaherpesvirus 1, KOS, HEL; remark: listed apart in the source
[6] = tested on: Mammalian orthoreovirus 1; assay type: functional, organism-based; details: Vero
Punta Toro virus = assay type: functional, organism-based; details: Vero
Influenza A virus [7] = assay type: functional, organism-based; details: H3N2, MDCK
Human alphaherpesvirus 2 = experiment: microbe, parasite or virus in culture; details: Human alphaherpesvirus 2, strain G, HEL
Coxsackievirus B4 = assay type: functional, organism-based; details: HeLa
Sindbis virus = assay type: functional, organism-based; details: Vero
Human respirovirus 3 = assay type: functional, organism-based; details: Vero
[8] = tested on: Vesicular stomatitis virus; assay type: functional, organism-based; details: HeLa
Human betaherpesvirus 5 [9] = experiment: microbe, parasite or virus in culture; details: Human betaherpesvirus 5, Davis, HEL
[10] = tested on: Vesicular stomatitis virus; assay type: functional, organism-based; details: MDCK
[11] = tested on: Human immunodeficiency virus 1; experiment: Antiviral activity against HIV1 3B infected in human […] cells assessed as virus-induced CEM giant cell formation after 4 days; assay type: functional, organism-based
Influenza A virus [12] = assay type: functional, organism-based; details: H1N1, MDCK
Human alphaherpesvirus 3 [13] = experiment: microbe, parasite or virus in culture; details: Human alphaherpesvirus 3, strain Oka vaccine, HEL

| SMILES | EC50 (Vaccinia virus) [µM] | EC50 (Human alphaherpesvirus 3 [1]) [µM] | CC50 at 72 h (in vitro) [µM] | MCC at 72 h (in vitro) [µM] | EC50 (Human alphaherpesvirus 1 [2]) [µM] | IC50 (HeLa) [µM] | inhibition [3] | IC50 (L1210) [µM] | inhibition (Influenza B virus) | IC50 (CCRF-CEM) [µM] | EC50 (Human betaherpesvirus 5 [4]) [µM] | EC50 (Human alphaherpesvirus 1 [5]) [µM] | inhibition [6] | inhibition (Punta Toro virus) | inhibition (Influenza A virus [7]) | EC50 (Human alphaherpesvirus 2) [µM] | inhibition (Coxsackievirus B4) | inhibition (Sindbis virus) | inhibition (Human respirovirus 3) | EC50 (Human betaherpesvirus 5 [9]) [µM] | also measured |
| --- | --- | --- | --- | --- | --- | --- | --- | --- | --- | --- | --- | --- | --- | --- | --- | --- | --- | --- | --- | --- | --- |
| Nc1nc2c(ncn2COCCO)c(=O)[nH]1 [ACYCLOVIR] | > 250 | 16.5 | > 130 | > 50 | 10 | – | – | – | – | – | – | – | – | – | – | – | – | – | – | – | – |
| O=c1[nH]c(=O)n([C@H]2C[C@H](O)[C@@H](CO)O2)cc1-c1cn(-c2ccccc2)nn1 | > 50 | > 270 | 270 | 270 | > 50 | 56 | inactive | 204 | inactive | 75 | > 270 | > 50 | inactive | inactive | inactive | > 50 | inactive | inactive | inactive | > 270 | inhibition [8]: inactive; inhibition [10]: inactive; inhibition [11]: inactive; inhibition (Influenza A virus [12]): inactive; EC50 (Human alphaherpesvirus 3 [13]): > 270 µM |
| NC(=O)c1ncn([C@@H]2O[C@H](CO)[C@@H](O)[C@H]2O)n1 [RIBAVIRIN] | > 250 | – | > 250 | > 250 | > 250 | – | – | – | – | – | > 100 | > 250 | – | – | – | > 250 | – | – | – | > 100 | – |
| CC(C)c1ccc(-n2cc(-c3cn([C@H]4C[C@H](O)[C@@H](CO)O4)c(=O)[nH]c3=O)nn2)cc1 | > 10 | 97 | 7.4 | > 240 | > 10 | 6.2 | inactive | 29 | inactive | 22 | 240 | > 10 | inactive | inactive | inactive | > 10 | inactive | inactive | inactive | 185 | inhibition [8]: inactive; inhibition [10]: inactive; inhibition [11]: inactive; inhibition (Influenza A virus [12]): inactive; EC50 (Human alphaherpesvirus 3 [13]): 20 µM |
| Nc1nc2c(ncn2COC(CO)CO)c(=O)[nH]1 [GANCICLOVIR] | > 100 | – | > 250 | > 250 | 0.1 | – | – | – | – | – | – | – | – | – | – | 0.04 | – | – | – | – | – |
| O=c1[nH]c(=O)n([C@H]2C[C@H](O)[C@@H](CO)O2)cc1-c1cn(-c2ccc([N+](=O)[O-])cc2)nn1 | > 50 | > 50 | 136 | 240 | > 50 | > 100 | inactive | > 100 | inactive | > 100 | > 50 | > 50 | inactive | inactive | inactive | > 50 | inactive | inactive | inactive | > 50 | inhibition [8]: inactive; inhibition [10]: inactive; inhibition [11]: inactive; inhibition (Influenza A virus [12]): inactive; EC50 (Human alphaherpesvirus 3 [13]): > 50 µM |
| O=c1[nH]c(=O)n([C@H]2C[C@H](O)[C@@H](CO)O2)cc1-c1cn(-c2c(F)cccc2F)nn1 | 38 | 6.1 | 1.5 | ≥ 10 | 31 | 0.51 | inactive | 2.9 | inactive | 1.5 | 29 | 36 | inactive | inactive | inactive | ≥ 50 | inactive | inactive | inactive | 18 | inhibition [8]: inactive; inhibition [10]: inactive; inhibition [11]: inactive; inhibition (Influenza A virus [12]): inactive; EC50 (Human alphaherpesvirus 3 [13]): 3.1 µM |
| CCCCc1ccc(-n2cc(-c3cn([C@H]4C[C@H](O)[C@@H](CO)O4)c(=O)[nH]c3=O)nn2)cc1 | > 50 | > 50 | 147 | 230 | > 50 | 23 | inactive | 15 | inactive | 60 | > 50 | > 50 | inactive | inactive | inactive | > 50 | inactive | inactive | inactive | > 50 | inhibition [8]: inactive; inhibition [10]: inactive; inhibition [11]: inactive; inhibition (Influenza A virus [12]): inactive; EC50 (Human alphaherpesvirus 3 [13]): > 50 µM |
| O=c1[nH]c(=O)n([C@H]2C[C@H](O)[C@@H](CO)O2)cc1-c1cn(-c2ccc(Br)cc2)nn1 | 31 | 14 | 1 | ≥ 44 | 132 | 1.37 | inactive | 4.6 | inactive | 1.8 | 45 | 132 | inactive | inactive | inactive | ≥ 100 | inactive | inactive | inactive | 25 | inhibition [8]: inactive; inhibition [10]: inactive; inhibition [11]: inactive; inhibition (Influenza A virus [12]): inactive; EC50 (Human alphaherpesvirus 3 [13]): 2.6 µM |
| O=c1[nH]c(=O)n([C@H]2C[C@H](O)[C@@H](CO)O2)cc1-c1cn(-c2ccc(Oc3ccccc3)cc2)nn1 | 4.3 | 5.7 | 0.45 | 130 | 8.6 | 0.28 | inactive | 0.5 | inactive | 0.8 | 19.4 | 31 | inactive | inactive | inactive | ≥ 43 | inactive | inactive | inactive | 16.4 | inhibition [8]: inactive; inhibition [10]: inactive; inhibition [11]: inactive; inhibition (Influenza A virus [12]): inactive; EC50 (Human alphaherpesvirus 3 [13]): 1.4 µM |
| CC(C)c1ccc(-n2nncc2-c2cn([C@H]3C[C@H](O)[C@@H](CO)O3)c(=O)[nH]c2=O)cc1 | > 100 | – | – | > 100 | > 100 | > 200 | – | > 200 | – | > 200 | – | > 100 | – | – | – | > 100 | – | – | – | – | – |
| O=c1[nH]c(=O)n([C@H]2C[C@H](O)[C@@H](CO)O2)cc1-c1cnnn1-c1c(F)cccc1F | > 100 | – | – | > 100 | > 100 | 5 | – | 10 | – | 12 | – | > 100 | – | – | – | > 100 | – | – | – | – | – |
| O=c1[nH]c(=O)n([C@H]2C[C@H](O)[C@@H](CO)O2)cc1-c1cn(-c2cc(F)cc(F)c2)nn1 | > 220 | > 50 | 36 | 220 | > 220 | – | inactive | – | inactive | – | > 50 | > 220 | inactive | inactive | inactive | > 220 | inactive | inactive | inactive | > 50 | inhibition [8]: inactive; inhibition [10]: inactive; inhibition [11]: inactive; inhibition (Influenza A virus [12]): inactive; EC50 (Human alphaherpesvirus 3 [13]): > 50 µM |
| O=c1[nH]cc(F)c(=O)[nH]1 [FLUOROURACIL] | – | – | – | – | – | 0.57 | – | 0.56 | – | 14 | – | – | – | – | – | – | – | – | – | – | – |
| Nc1ccn(C[C@@H](CO)OCP(=O)(O)O)c(=O)n1 [CIDOFOVIR] | – | – | > 250 | > 250 | 0.8 | – | – | – | – | – | – | 0.8 | – | – | – | 1.4 | – | – | – | 0.4 | – |
| O=c1[nH]c(=O)n([C@H]2C[C@H](O)[C@@H](CO)O2)cc1/C=C/Br [BRIVUDINE] | – | 54.4 | > 250 | > 250 | 6 | – | – | – | – | – | – | – | – | – | – | 180 | – | – | – | – | – |
| O=c1[nH]c(=O)n([C@H]2C[C@H](O)[C@@H](CO)O2)cc1-c1cnnn1-c1ccc(Br)cc1 | > 100 | – | – | > 100 | > 100 | 8 | – | 61 | – | 47 | – | > 100 | – | – | – | > 100 | – | – | – | – | – |
| O=c1[nH]c(=O)n([C@H]2C[C@H](O)[C@@H](CO)O2)cc1-c1cnnn1-c1ccc(Oc2ccccc2)cc1 | > 100 | – | – | > 100 | > 100 | 42 | – | 134 | – | 107 | – | > 100 | – | – | – | > 100 | – | – | – | – | – |
